Experimental data taken from ChEMBL document CHEMBL4000222, “Synthetic strategy for increasing solubility of potential FLT3 inhibitor thieno[2,3-d]pyrimidine derivatives through structural modifications at the C2 and C6 positions” (Bioorg Med Chem Lett, 2017).
≈ marks a conversion by molar mass, not a printed value. Blank lines part the entries; values can stand above or below the compound they belong to.

Experiments:
[1] = Solubility of the compound in phosphate buffered saline kept in shaker for 1 hr; assay type: physicochemical
K562 = test: cells; conditions: Homo sapiens
Description: Growth inhibition of FLT3 null human K562 cells by CCK8 assay

[2] = Stability in rat liver microsomes assessed as compound remaining after 30 mins; assay type: ADME, microsome; conditions: read-out: Stability
[3] = Stability in human liver microsomes assessed as compound remaining after 30 mins; assay type: ADME, microsome; conditions: read-out: Stability
[4] = Solubility of the compound in distilled water kept in shaker for 1 hr; assay type: physicochemical
HL-60 = test: cells; conditions: Homo sapiens
Description: Growth inhibition of human HL60 cells harboring wild-type FLT3 by CCK8 assay

[5] = target: T1, Receptor-type tyrosine-protein kinase FLT3 (Homo sapiens, UniProt P36888); test: biochemical; assay type: cell-based
T1 sequence (P36888 whole entry): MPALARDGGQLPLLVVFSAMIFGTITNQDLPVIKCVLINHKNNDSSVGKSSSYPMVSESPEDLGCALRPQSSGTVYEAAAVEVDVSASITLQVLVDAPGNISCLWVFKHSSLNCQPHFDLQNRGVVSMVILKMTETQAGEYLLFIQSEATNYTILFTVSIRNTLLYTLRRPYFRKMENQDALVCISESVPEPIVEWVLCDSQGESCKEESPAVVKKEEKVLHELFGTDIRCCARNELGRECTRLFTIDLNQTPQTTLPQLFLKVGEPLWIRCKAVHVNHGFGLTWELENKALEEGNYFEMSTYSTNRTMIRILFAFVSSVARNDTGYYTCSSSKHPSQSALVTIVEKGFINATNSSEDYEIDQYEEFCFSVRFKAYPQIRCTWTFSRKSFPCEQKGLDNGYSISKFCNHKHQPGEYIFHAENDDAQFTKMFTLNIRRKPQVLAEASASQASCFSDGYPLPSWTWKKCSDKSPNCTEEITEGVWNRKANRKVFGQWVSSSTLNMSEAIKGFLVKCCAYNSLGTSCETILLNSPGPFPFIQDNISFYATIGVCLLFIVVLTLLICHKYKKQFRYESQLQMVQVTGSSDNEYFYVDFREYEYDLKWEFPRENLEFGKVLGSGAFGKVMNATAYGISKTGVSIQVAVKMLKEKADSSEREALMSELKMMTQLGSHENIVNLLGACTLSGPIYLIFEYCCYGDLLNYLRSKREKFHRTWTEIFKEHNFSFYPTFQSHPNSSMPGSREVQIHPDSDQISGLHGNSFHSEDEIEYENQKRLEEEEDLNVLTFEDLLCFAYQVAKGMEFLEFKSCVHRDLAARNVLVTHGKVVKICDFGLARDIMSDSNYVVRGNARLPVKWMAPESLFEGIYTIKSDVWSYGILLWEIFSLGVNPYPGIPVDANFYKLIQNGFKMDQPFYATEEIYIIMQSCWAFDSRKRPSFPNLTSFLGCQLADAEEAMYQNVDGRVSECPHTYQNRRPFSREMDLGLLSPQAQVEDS
Description: Inhibition of N-terminal GST-tagged recombinant human wild-type FLT3 (564 to end residues) expressed in baculovirus infected sf21 cells using Abltide as substrate in presence of [gamma33P]ATP after 10 mins by scintillation counting method

[6] = target: Receptor-type tyrosine-protein kinase FLT3 (Homo sapiens, UniProt P36888, D835Y); test: biochemical; assay type: cell-based
Description: Inhibition of N-terminal GST-tagged recombinant human wild-type FLT3 (564 to end residues) D835Y mutant expressed in baculovirus infected sf21 cells using Abltide as substrate in presence of [gamma33P]ATP after 10 mins by scintillation counting method

THP-1 = test: cells; conditions: Homo sapiens
Description: Growth inhibition of human THP1 cells harboring wild-type FLT3 by XTT assay

MV4-11 = test: cells; conditions: Homo sapiens
Description: Growth inhibition of human MV4-11 cells harboring FLT3-ITD mutant by XTT assay

solubility at 1 h [1]: 1.04 µM (≈ 0.385 µg/mL)
GI50 (K562): 102 nM
remaining at 0.5 h [2]: 22.7%
remaining at 0.5 h [3]: 32.4%
solubility at 1 h [4]: 1.28 µM (≈ 0.474 µg/mL)
GI50 (HL-60): > 10000 nM
SMILES: CC1=CC(=O)N(Nc2nc(-c3cccs3)nc3sc(C)c(C)c23)C1=O

solubility at 1 h [1]: 0.36 µM (≈ 0.128 µg/mL)
GI50 (K562): 2570 nM
remaining at 0.5 h [2]: 32.6%
remaining at 0.5 h [3]: 58.8%
solubility at 1 h [4]: 5.84 µM (≈ 2.08 µg/mL)
GI50 (HL-60): > 10000 nM
SMILES: CC1=CC(=O)N(Nc2nc(-c3cccs3)nc3sc(C)cc23)C1=O

IC50 [5]: 11.1 nM
SMILES: CNCCOc1ccc(-c2sc3nc(-c4cccs4)nc(NN4C(=O)C=C(C)C4=O)c3c2C)cc1

SMILES: CC1=CC(=O)N(Nc2nc(-c3ccc[nH]3)nc3sc(C)cc23)C1=O
solubility at 1 h [1]: 0.59 µM (≈ 0.2 µg/mL)
IC50 [5]: 135 nM
IC50 [6]: 117 nM
remaining at 0.5 h [2]: 39.1%
remaining at 0.5 h [3]: 40.4%
solubility at 1 h [4]: 10.1 µM (≈ 3.42 µg/mL)

SMILES: CC1=CC(=O)N(Nc2nc(-c3ccc(F)cc3)nc3sc(C)cc23)C1=O
solubility at 1 h [1]: < 0.14 µM
IC50 [5]: 274 nM
IC50 [6]: 266 nM
remaining at 0.5 h [2]: 8.58%
remaining at 0.5 h [3]: 42.6%
solubility at 1 h [4]: < 0.14 µM

SMILES: CC1=CC(=O)N(Nc2nc(-c3ccc[nH]3)nc3sc(C)c(C)c23)C1=O
solubility at 1 h [1]: 0.16 µM (≈ 0.0565 µg/mL)
GI50 (K562): 1100 nM
IC50 [5]: 79.3 nM
IC50 [6]: 89.2 nM
GI50 (THP-1): 339 nM
GI50 (MV4-11): 452 nM
remaining at 0.5 h [2]: 39.7%
remaining at 0.5 h [3]: 37.1%
solubility at 1 h [4]: 0.87 µM (≈ 0.307 µg/mL)
GI50 (HL-60): > 10000 nM

SMILES: CC1=CC(=O)N(Nc2nc(-c3ccc(F)cc3)nc3sc(C)c(C)c23)C1=O
solubility at 1 h [1]: < 0.14 µM
IC50 [5]: 211 nM
IC50 [6]: 172 nM
remaining at 0.5 h [2]: 19.6%
remaining at 0.5 h [3]: 20.7%
solubility at 1 h [4]: < 0.14 µM

SMILES: CC1=CC(=O)N(Nc2nc(-c3ccco3)nc3sc(C)cc23)C1=O
solubility at 1 h [1]: 28.5 µM (≈ 9.69 µg/mL)
IC50 [5]: 171 nM
IC50 [6]: 129 nM
remaining at 0.5 h [2]: 34.8%
remaining at 0.5 h [3]: 35.1%
solubility at 1 h [4]: 40.6 µM (≈ 13.8 µg/mL)

SMILES: CC1=CC(=O)N(Nc2nc(-c3nccs3)nc3sc(C)cc23)C1=O
solubility at 1 h [1]: 2.8 µM (≈ 1 µg/mL)
GI50 (K562): 1280 nM
IC50 [5]: 33.4 nM
IC50 [6]: 33.9 nM
GI50 (THP-1): 961 nM
GI50 (MV4-11): 1350 nM
remaining at 0.5 h [2]: 14.5%
remaining at 0.5 h [3]: 27.5%
solubility at 1 h [4]: 1.43 µM (≈ 0.511 µg/mL)
GI50 (HL-60): > 10000 nM

SMILES: CC1=CC(=O)N(Nc2nc(-c3ccco3)nc3sc(C)c(C)c23)C1=O
solubility at 1 h [1]: 12.4 µM (≈ 4.38 µg/mL)
IC50 [5]: 100 nM
IC50 [6]: 102 nM
remaining at 0.5 h [2]: 26.2%
remaining at 0.5 h [3]: 10.9%
solubility at 1 h [4]: 24.6 µM (≈ 8.73 µg/mL)

SMILES: CC1=CC(=O)N(Nc2nc(-c3nccs3)nc3sc(C)c(C)c23)C1=O
solubility at 1 h [1]: 36.8 µM (≈ 13.7 µg/mL)
GI50 (K562): 532 nM
IC50 [5]: 16 nM
IC50 [6]: 21.4 nM
GI50 (THP-1): 141 nM
GI50 (MV4-11): 216 nM
remaining at 0.5 h [2]: 17.7%
remaining at 0.5 h [3]: 45.7%
solubility at 1 h [4]: 25.3 µM (≈ 9.41 µg/mL)
GI50 (HL-60): > 10000 nM
